We go through 22 compounds from US10368545B2, “Substituted 2-thioimidazolylcarboxamides as pesticides” (BAYER CROPSCIENCE AKTIENGESELLSCHAFT, priority 2015, dated 2019).

“And” between values parts separate entries of the source, which are not always exact repeats. Equal entries are not always repeated.

Data set [1] deals with larvae of the mustard beetle (Phaedon cochleariae). Description: Contrasting example: Phaedon cochleariae spray test (PHAECO). The following applies: 500 g ai/ha, 7 dat. The data set is classed as in vivo. On the procedure: Phaedon cochleariae—Spray Test (PHAECO)
(§1) Solvents: 78.0 parts by weight of acetone • • 1.5 parts by weight of dimethylformamide
(§2) Emulsifier: alkylaryl polyglycol ether
(§3) To produce a suitable active compound preparation, 1 part by weight of active compound is dissolved using the stated parts by weight of solvent and made up with water containing an emulsifier concentration of 1000 ppm until the desired concentration is attained. To produce further test concentrations, the preparation is diluted with emulsifier-containing water.
After the desired period of time, the efficacy in % is determined. 100% means that all beetle larvae were killed; 0% means that no beetle larvae were killed.

Data set [2] relates to green peach aphid (Myzus persicae). Description: Contrasting example: Myzus persicae spray test (MYZUPE). It is filed as in vivo. The settings on record: MYZUPE, 100 g ai/ha, 6 dat; for pest or weed control at 100 g/ha: Myzus persicae, 144 h, read-out: % efficacy. Put shortly:
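Chinese cabbage leaf discs carrying all stages of the aphid were sprayed with compound in acetone/dimethylformamide, diluted with water containing alkylaryl polyglycol ether emulsifier. After the set period, efficacy was scored as % of aphids killed (100% = all dead, 0% = none).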

Data set [3] concerns greenhouse red spider mite (Tetranychus urticae). Description: Contrasting example: Tetranychus urticae spray test, OP resistant (TETRUR). The data set is classed as in vivo. The following applies: 500 g ai/ha, 6 dat. On the procedure: Tetranychus urticae—Spray Test; OP Resistant (TETRUR)
as §1, §2, §3
Discs of bean leaves (Phaseolus vulgaris), infested by all stages of the greenhouse red spider mite (Tetranychus urticae) are sprayed with an active compound preparation of the desired concentration.
After the desired period of time, the efficacy in % is determined. 100% means that all spider mites were killed; 0% means that no spider mites were killed.

Data set [4] concerns green peach aphid (Myzus persicae). Briefly: Myzus persicae spray test (bell pepper plants). It is filed as in vivo. The settings on record: after 6 days. On the procedure:
Myzus persicae—Spray Test
Solvent: 14 parts by weight of dimethylformamide
as §2
To produce a suitable active compound preparation, 1 part by weight of active compound is dissolved using the stated parts by weight of solvent and made up with water containing an emulsifier concentration of 1000 ppm until the desired concentration is attained. To produce further test concentrations, the preparation is diluted with emulsifier-containing water. If the addition of ammonium salts and/or penetrants is required, these are each added in a concentration of 1000 ppm to the formulation solution.
Bell pepper plants (Capsicum annuum) severely infested with the green peach aphid (Myzus persicae) are treated by spraying with the active compound preparation in the desired concentration.
After 6 days, the kill in % is determined. 100% means that all of the aphids have been killed; 0% means that none of the aphids have been killed.

The nature of data set [5]: log P by HPLC on reversed-phase C18 columns (OECD Guideline 117). It is filed as physicochemical. The following applies: for logP[a]: method [a]; for logP[b]: method [b]. The gist of the method:
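Reversed-phase C18 HPLC per OECD 117, LC-MS with a linear 10% to 95% acetonitrile gradient. Acidic method at pH 2.7 with 0.1% formic acid; neutral method at pH 7.8 with 0.001 M ammonium hydrogencarbonate.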

For data set [6], the system named is green peach aphid (Myzus persicae). Briefly: Myzus persicae spray test (Chinese cabbage leaf discs). The data set is classed as in vivo. The following applies: after 5 or 6 days, Chinese cabbage leaf discs. The gist of the method:
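Leaf discs bearing all aphid stages are sprayed with compound dissolved in acetone/DMF and diluted with water containing 1000 ppm emulsifier. Efficacy in % is scored after 5 or 6 days: 100% means all aphids killed, 0% none killed.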

The subject of data set [7] is greenhouse red spider mite (Tetranychus urticae). Briefly: Tetranychus urticae spray test, OP-resistant (bean leaf discs). The data set is classed as in vivo. The settings on record: application rate 500 g/ha, after 6 days. On the procedure:
Tetranychus urticae—Spray Test, OP-Resistant
Solvent: 78.0 parts by weight of acetone • • 1.5 parts by weight of dimethylformamide
as §2, §3
Discs of bean leaves (Phaseolus vulgaris) infested with all stages of the greenhouse red spider mite (Tetranychus urticae) are sprayed with an active compound preparation of the desired concentration.
After 6 days, the efficacy in % is determined. 100% means that all the spider mites had been killed; 0% means that no spider mites had been killed.

Data set [8] deals with southern root-knot nematode (Meloidogyne incognita). Description: Meloidogyne incognita test (gall formation on lettuce). It is filed as in vivo. The following applies: application rate 20 ppm; after 14 days. On the procedure: Meloidogyne incognita Test
Solvent: 125.0 parts by weight of acetone
To produce a suitable preparation of active compound, 1 part by weight of active compound is mixed with the stated amount of solvent and the concentrate is diluted with water to the desired concentration.
Vessels are filled with sand, active compound solution, an egg/larvae suspension of the southern root-knot nematode (Meloidogyne incognita) and lettuce seeds. The lettuce seeds germinate and the plants develop. The galls develop on the roots.
After 14 days, the nematicidal efficacy in % is determined by the formation of galls. 100% means that no galls were found; 0% meant that the number of galls on the treated plants corresponds to the untreated control.

In data set [9] the test system is larvae of the mustard beetle (Phaedon cochleariae). Briefly: Phaedon cochleariae spray test (Chinese cabbage leaf discs). It is filed as in vivo. The following applies: application rate 500 g/ha, after 7 days. As for the experimental part: Phaedon cochleariae—Spray Test
as §1, §2, §3
After 7 days, the efficacy in % is determined. 100% means that all beetle larvae were killed; 0% means that no beetle larvae were killed.

On to `O=C(Nc1cccnc1)c1c[nH]cn1` [Example 13], for which the “% efficacy” value in data set [1] and in data set [3] was 0% throughout. Moreover, the pest or weed control at 100 g/ha in data set [2] amounted to 0%.
As for `Cc1nc(C(=O)Nc2cccnc2)c[nH]1` [Example 14], the “% efficacy” value in data set [1] and in data set [3] was 0% in each case. Also, in [2], the pest or weed control at 100 g/ha stood at 0%.
As to `Cc1cc(C)nc(Sc2ncc(C(=O)Nc3cccnc3)n2C)n1` [I-A-4], in data set [4] (application rate 20 ppm), the “efficacy (kill of aphids)” value came to 99%. In addition, the “% efficacy” value in [2] was 70%. In [5], the “logP[a]” value is listed as 1.55 and the “logP[b]” value was 1.97.
With `CCCCCSc1ncc(C(=O)N(C)c2cccnc2)n1C` [I-A-6], in data set [6] (application rate 500 g/ha), the “efficacy (aphids killed)” value was found to be 90%. Further, the “efficacy (spider mites killed)” value in [7] was 90%. The “% efficacy” value in data set [2] and in data set [3] was 90% in each case. Further, in [5], the “logP[a]” value is recorded as 2.03. Besides, the “logP[b]” value in [5] is given as 2.33.
On to `CN(C(=O)c1cnc(SCc2ccccc2)n1C)c1cccnc1` [I-A-7], for which the “nematicidal efficacy (formation of galls)” value in [8] amounted to 90%. Further, the “efficacy (aphids killed)” value in data set [6] (application rate 500 g/ha) turned out to be 90%. Moreover, in data set [2], the “% efficacy” value stood at 70%. Also, in [5], the “logP[a]” value is on record as 1.68 and the “logP[b]” value is 1.91.
Regarding `CN(C(=O)c1c(Cl)nc(Sc2ncccn2)n1C)c1cccnc1` [I-A-15], the “% efficacy” value in [1] amounted to 83%. Also, the “efficacy (beetle larvae killed)” value in [9] stood at 83%. Also, in data set [5], the “logP[a]” value amounted to 1.24 and the “logP[b]” value is reported as 1.34.
On to `COCCCSc1ncc(C(=O)N(C)c2cccnc2)n1C` [I-A-20], for which the “efficacy (kill of aphids)” value in data set [4] (application rate 20 ppm) came out at 99%. In data set [5], the “logP[a]” value turned out to be 1.04 and the “logP[b]” value amounted to 1.35.
Consider `CC(C)=CCSc1ncc(C(=O)N(C)c2cccnc2)n1C` [I-A-35], for which the “nematicidal efficacy (formation of galls)” value in [8] came out at 90%. Moreover, in data set [5], the “logP[a]” value came to 1.61 and the “logP[b]” value came to 1.96.
As to `CON=C(C)CSc1ncc(C(=O)N(C)c2cccnc2)n1C` [I-A-39], the “efficacy (aphids killed)” value in [6] (application rate 500 g/ha) came out at 90%. Further, in [5], the “logP[a]” value was determined as 1.13; the “logP[b]” value is 1.37 and 1.45. For the same compound, in [3], the “% efficacy” value was found to be 70%.
Regarding `CCN(C(=O)c1cnc(SC)n1C)c1cccnc1` [I-A-44], the “efficacy (kill of aphids)” value in data set [4] (application rate 20 ppm) came to 100%. In data set [5], the “logP[a]” value worked out at 0.80 and the “logP[b]” value worked out at 1.30.
For `CN(C(=O)c1cnc(Sc2ccc(Cl)cc2)n1C)c1cccnc1` [I-A-57], in that order: 99%, 2.02 and 2.14.
As to `CN(C(=O)c1cnc(Sc2cccc(Cl)c2)n1C)c1cccnc1` [I-A-66], the “efficacy (kill of aphids)” value in data set [4] (application rate 100 ppm) was determined as 99%. Besides, in data set [5], the “logP[a]” value was 1.97 and the “logP[b]” value turned out to be 2.11.
`CN(C(=O)c1cnc(S(=O)(=O)c2cc(Cl)cc(Cl)c2)n1C)c1cccnc1` [I-A-78]: the “efficacy (aphids killed)” value in data set [6] (application rate 100 g/ha) came to 90%. In addition, in [7], the “efficacy (spider mites killed)” value is recorded as 90%. In addition, the “% efficacy” value in [2] is reported as 90%. Moreover, in [5], the “logP[a]” value was 2.37 and the “logP[b]” value came to 2.53. For the same compound, the “% efficacy” value in data set [3] is 90%.
With `CN(C(=O)c1cnc([S+]([O-])c2ccc(Cl)c(C(F)(F)F)c2)n1C)c1cccnc1` (centres unmarked) [I-A-79], the “% efficacy” value in [1] is recorded as 100%. Moreover, in [6] (application rate 500 g/ha), the “efficacy (aphids killed)” value was found to be 90%. Further, the “efficacy (beetle larvae killed)” value in data set [9] came to 100%. For the same compound, in data set [5], the “logP[a]” value came out at 2.16 and the “logP[b]” value came out at 2.29.
With `CN(C(=O)c1cnc(S(=O)(=O)c2ccc(Cl)c(C(F)(F)F)c2)n1C)c1cccnc1` [I-A-80], the “% efficacy” value in data set [1] is recorded as 100%. The “efficacy (beetle larvae killed)” value in [9] was determined as 100%. In [5], the “logP[a]” value was found to be 2.56 and the “logP[b]” value was found to be 2.72.
On to `CN(C(=O)c1cnc([S+]([O-])c2ccc([N+](=O)[O-])cc2)n1C)c1cccnc1` (centres unmarked) [I-A-89], for which the “efficacy (kill of aphids)” value in [4] (application rate 20 ppm) was determined as 99%. Moreover, the “% efficacy” value in data set [2] amounted to 70%. In addition, in data set [5], the “logP[a]” value came out at 1.20 and the “logP[b]” value worked out at 1.38.
For `COc1ccc([S+]([O-])c2ncc(C(=O)N(C)c3cccnc3)n2C)cc1` (centres unmarked) [I-A-93], in that order: 95%, 70%, 1.12 and 1.28.
On to `CN(C(=O)c1cnc(S(=O)(=O)c2ncccn2)n1C)c1cccnc1` [I-A-99], for which the “efficacy (kill of aphids)” value in data set [4] (application rate 20 ppm) stood at 100%. Besides, in [2], the “% efficacy” value is given as 70%. Besides, in data set [5], the “logP[a]” value is on record as 0.66 and the “logP[b]” value stood at 0.87.
As to `CN(C(=O)c1cnc(Sc2ncc(C(F)(F)F)cn2)n1C)c1cccnc1` [I-A-105], in data set [6] (application rate 500 g/ha), the “efficacy (aphids killed)” value was determined as 100%. Further, the “efficacy (spider mites killed)” value in [7] is reported as 90%. For the same compound, the “% efficacy” value in [2] was found to be 100%. For the same compound, in data set [5], the “logP[a]” value was 1.64 and the “logP[b]” value turned out to be 1.73. Moreover, the “% efficacy” value in data set [3] is 90%.
On to `CN(C(=O)c1cnc(Sc2ncc(F)cn2)n1C)c1cccnc1` [I-A-107], for which, in [6] (application rate 500 g/ha), the “efficacy (aphids killed)” value was determined as 90%. For the same compound, the “% efficacy” value in data set [2] turned out to be 90%. For the same compound, in data set [5], the “logP[a]” value is 1.04 and the “logP[b]” value is reported as 1.20. Also, the “% efficacy” value in [3] is reported as 70%.
`CN(C(=O)c1cnc(Sc2ncccc2C(F)(F)F)n1C)c1cccnc1` [I-A-110]: the “efficacy (aphids killed)” value in [6] (application rate 500 g/ha) is given as 100%. The “% efficacy” value in [2] is on record as 100%. In [5], the “logP[a]” value was 1.77 and the “logP[b]” value was determined as 1.93. Besides, the “% efficacy” value in data set [3] is 70%.
Regarding `CN(C(=O)c1cnc(SCc2c(Cl)cccc2Cl)n1C)c1cccnc1` [I-A-125], the “efficacy (aphids killed)” value in data set [6] (application rate 500 g/ha) stood at 90%. Also, the “% efficacy” value in data set [2] is reported as 70%. In data set [5], the “logP[a]” value is reported as 2.09 and the “logP[b]” value came to 2.28. In addition, in data set [3], the “% efficacy” value is 70%.
